Results: the C3SDB collision cross section collection
Structures can show the parent of a compound that is named as a salt.

Conditions: [M+H-H2O]+; instrument: TW; calibrated with polyalanine and drug standards

collision cross section (N2) [Å²] | Structure (SMILES)
204 | CC(C)CCC[C@@H](C)[C@H]1CC[C@H]2C3=CC[C@H]4C[C@@H](O)CC[C@]4(C)[C@H]3CC[C@]12C [LATHOSTEROL]
169.4 | COC(=O)C1=C(C)NC(C)=C(C(=O)OC)C1c1ccccc1[N+](=O)[O-] [NIFEDIPINE]
150.7 | C=C1C(=O)O[C@@H]2[C@H]3O[C@]3(C)CC/C=C(\C)CC[C@@H]12 [PARTHENOLIDE]

Same assay, conditions: [M+H]+; instrument: TW; calibrated with polyalanine and drug standards

Structure (SMILES) | collision cross section (N2) [Å²]
COc1cc(-c2coc3cc(O)c(OC)c(O)c3c2=O)cc(O)c1OC [IRIGENIN] | 181.6
COc1cc2occc2c2oc(=O)ccc12 [ISOBERGAPTENE] | 139.8
COc1cc2c(cc1OC)[C@@H]1C(=O)c3ccc4oc(C(C)C)cc4c3O[C@@H]1CO2 [ISOROTENONE] | 195.2
O=[N+]([O-])O[C@H]1CO[C@H]2[C@@H]1OC[C@H]2O[N+](=O)[O-] [ISOSORBIDE DINITRATE] | 151.6
Cc1cc(NC(=O)C2=C(O)c3ccccc3S(=O)(=O)N2C)no1 [ISOXICAM] | 170.8
Nc1nnc(-c2cccc(Cl)c2Cl)c(N)n1 [LAMOTRIGINE] | 150.6
NCCCC[C@H](N[C@@H](CCc1ccccc1)C(=O)O)C(=O)N1CCC[C@H]1C(=O)O [LISINOPRIL] | 189.7
CCCCc1nc(Cl)c(CO)n1Cc1ccc(-c2ccccc2-c2nn[nH]n2)cc1 [LOSARTAN] | 199.2
Cc1cccc(Nc2ccccc2C(=O)O)c1C [MEFENAMIC ACID] | 153.3
N[C@@H](Cc1ccc(N(CCCl)CCCl)cc1)C(=O)O [MELPHALAN] | 168.7
S=c1nc[nH]c2nc[nH]c12 [MERCAPTOPURINE] | 125.5
CC(=O)Nc1cccc(O)c1 [METACETAMOL] | 130.6
COc1cc2c(cc1OC)C(=O)OC2 [METAMECONINE] | 137.6
CC(C)NCC(O)c1cc(O)cc(O)c1 (stereo not given) [METAPROTERENOL] | 149.9
C[C@H]1C[C@@H]2[C@H]([C@@H](O)C[C@@]3(C)[C@H]2CC[C@]3(O)C(=O)CO)[C@@]2(C)C=CC(=O)C=C12 [METHYLPREDNISOLONE] | 187.7
CO[C@@]12[C@H](COC(N)=O)C3=C(C(=O)C(C)=C(N)C3=O)N1C[C@@H]1N[C@@H]12 [MITOMYCIN C] | 169.5
C[C@H]1C(=O)O[C@@H]2CCN3CC=C(COC(=O)[C@](C)(O)[C@]1(C)O)[C@H]23 [MONOCROTALINE] | 172.9
O=c1c(O)c(-c2ccc(O)cc2O)oc2cc(O)cc(O)c12 [MORIN] | 162.7
COc1ccc2c(c1)O[C@@H]1COc3cc(OC)c(OC)cc3[C@@H]1C2=O [MUNDOSERONE] | 175.1
COc1c(-c2coc3cc4c(cc3c2=O)CC(OC(C)=O)C(C)(C)O4)ccc2c1C=CC(C)(C)O2 (stereo not given) [MUNDULONE ACETATE] | 222.7
COc1c(-c2coc3cc4c(cc3c2=O)CC(O)C(C)(C)O4)ccc2c1C=CC(C)(C)O2 (stereo not given) [MUNDULONE] | 210.9
O=C(O)c1ccccc1Nc1ccccc1 [N-PHENYLANTHRANILIC ACID] | 144.5

Structure (SMILES) | collision cross section (N2) [Å²]
NC(=O)c1ccc[n+]([C@@H]2O[C@H](COP(=O)([O-])OP(=O)(O)OC[C@H]3O[C@@H](n4cnc5c(N)ncnc54)[C@H](O)[C@@H]3O)[C@@H](O)[C@H]2O)c1 [NADIDE] | 227
O=C1CC(c2ccc(O)cc2)Oc2cc(O)cc(O)c21 (stereo not given) [NARINGENIN] | 160.6
O=C(O)c1cccnc1 [NIACIN] | 120.3
CO[C@]12C[C@@H](COC(=O)c3cncc(Br)c3)CN(C)[C@@H]1Cc1cn(C)c3cccc2c13 [NICERGOLINE] | 213.8
O=C(O)c1cccnc1Nc1cccc(C(F)(F)F)c1 [NIFLUMIC ACID] | 159.4
COC(=O)C1=C(C)NC(C)=C(C(=O)OCC(C)C)C1c1ccccc1[N+](=O)[O-] (stereo not given) [NISOLDIPINE] | 187.2
COC(=O)Nc1nc2ccc(C(=O)c3cccs3)cc2[nH]1 [NOCODAZOLE] | 168.7
c1ccc2c(c1)[nH]c1cnccc12 [NORHARMAN] | 132.2
N[C@@H](COCc1ccccc1)C(=O)O [O-BENZYL-l-SERINE] | 142.5
CCCc1nc(C(C)(C)O)c(C(=O)OCc2oc(=O)oc2C)n1Cc1ccc(-c2ccccc2-c2nn[nH]n2)cc1 [OLMESARTAN MEDOXOMIL] | 225
CC(C)=CCc1c2c(c3occ(-c4ccc(O)cc4)c(=O)c3c1O)C=CC(C)(C)O2 [OSAJIN] | 201.4
CCOC(=O)C1=C[C@@H](OC(CC)CC)[C@H](NC(C)=O)[C@@H](N)C1 [OSELTAMIVIR] | 180.7
COC[C@]12CN(C=O)C3[C@@H]4[C@H](OC)C1[C@]3(C1CC3(O)C(OC)C(O)C4(OC(C)=O)C1C3OC(=O)c1ccccc1)[C@@H](OC)C[C@H]2O (stereo not given in full) [OXONITINE] | 236.2
COc1ccc(C(=O)c2ccccc2)c(O)c1 [OXYBENZONE] | 146.5
CCCCC1C(=O)N(c2ccccc2)N(c2ccc(O)cc2)C1=O (stereo not given) [OXYPHENBUTAZONE] | 177.2
COc1ccc(C(C)=O)c(O)c1 [PAEONOL] | 124.9
CC(C)(CO)[C@@H](O)C(=O)NCCC(=O)NCCSSCCNC(=O)CCNC(=O)[C@H](O)C(C)(C)CO [PANTETHINE] | 222.5
CC(C)(CO)[C@@H](O)C(=O)NCCC(=O)[O-] [PANTOTHENIC ACID(d) Na salt] | 146.7
O=C(O)CN(CCN(CC(=O)O)CC(=O)O)CCN(CC(=O)O)CC(=O)O [PENTETIC ACID] | 180.2
CC(=O)CCCCn1c(=O)c2c(ncn2C)n(C)c1=O [PENTOXIFYLLINE] | 158.5
C=C(C)[C@H]1CC=C(C(=O)O)CC1 [PERILLIC ACID (-)] | 124.9
OCCN1CCN(CCCN2c3ccccc3Sc3ccc(Cl)cc32)CC1 [PERPHENAZINE] | 192

Continued, values first:

collision cross section (N2) [Å²] | Structure (SMILES)
214.5 | CC(=O)N1CCN(c2ccc(OC[C@H]3CO[C@](Cn4ccnc4)(c4ccc(Cl)cc4Cl)O3)cc2)CC1 [KETOCONAZOLE]
179 | OC[C@H]1O[C@@H](n2cnc3c(NCc4ccco4)ncnc32)[C@H](O)[C@@H]1O [KINETIN RIBOSIDE]
144.1 | c1coc(CNc2ncnc3nc[nH]c23)c1 [KINETIN]
185.8 | Cc1c(OCC(F)(F)F)ccnc1CS(=O)c1nc2ccccc2[nH]1 (stereo not given) [LANSOPRAZOLE]
186.9 | COc1c2c(cc3occ(-c4ccc5c(c4)OCO5)c(=O)c13)OC(C)(C)C=C2 [METHYL ROBUSTONE]
170.7 | COCCc1ccc(OCC(O)CNC(C)C)cc1 (stereo not given) [METOPROLOL]
141 | OCCN1C[C@H](O)[C@@H](O)[C@H](O)[C@H]1CO [MIGLITOL]
146.1 | N=c1nc(N2CCCCC2)cc(N)n1O [MINOXIDIL]
214.8 | C/C(=C\C(=O)OCCCCCCCCC(=O)O)C[C@@H]1OC[C@H](C[C@@H]2O[C@H]2[C@@H](C)[C@H](C)O)[C@@H](O)[C@H]1O [MUPIROCIN]
148 | COc1ccc2cc(CCC(C)=O)ccc2c1 [NABUMETONE]
140 | COc1ccc2cc([C@H](C)CO)ccc2c1 [NAPROXOL]
178.6 | CC(C)C1CCC(C(=O)N[C@H](Cc2ccccc2)C(=O)O)CC1 (stereo not given in full) [NATEGLINIDE]
174.3 | O=C(CCNNC(=O)c1ccncc1)NCc1ccccc1 [NIALAMIDE]
124.6 | O=C(O)C1CCCNC1 (stereo not given) [NIPECOTIC ACID]
169.1 | CN/C(=C\[N+](=O)[O-])NCCSCc1csc(CN(C)C)n1 [NIZATIDINE]
174.6 | C#C[C@]1(O)CC[C@H]2[C@@H]3CCC4=C(CCC(=O)C4)[C@H]3CC[C@@]21C [NORETHYNODREL]
155.1 | COC1=CC(=O)C(O)=C/C1=C\C=C\c1ccccc1 [OBTUSAQUINONE]
134.7 | CC(C)CCCC(C)N (stereo not given) [OCTODRINE]

Same assay, conditions: [M+Na]+; instrument: TW; calibrated with polyalanine and drug standards

collision cross section (N2) [Å²] | Structure (SMILES)
292.7 | CC[C@H](C)[C@H]1O[C@]2(CC[C@@H]1C)C[C@@H]1C[C@@H](C/C=C(\C)[C@@H](O[C@H]3C[C@H](OC)[C@@H](O[C@H]4C[C@H](OC)[C@@H](O)[C@H](C)O4)[C@H](C)O3)[C@@H](C)/C=C/C=C3\CO[C@@H]4[C@H](O)C(C)=C[C@@H](C(=O)O1)[C@]34O)O2 [IVERMECTIN]
234.8 | C[C@H]1[C@H](C)CC[C@]2(C(=O)O)CC[C@]3(C)C(=CC[C@@H]4[C@@]5(C)C[C@@H](O)[C@H](O)[C@@](C)(CO)[C@@H]5[C@H](O)C[C@]43C)[C@H]12 [MADECASSIC ACID]
233.5 | C[C@@H]1O[C@@H](O[C@H]2[C@H](Oc3cc(O)c4c(c3)O[C@H](c3ccc(O)cc3)CC4=O)O[C@H](CO)[C@@H](O)[C@@H]2O)[C@H](O)[C@H](O)[C@H]1O [NARINGIN]

Structure (SMILES) | collision cross section (N2) [Å²]
CCOC(=O)CC(SP(=S)(OC)OC)C(=O)OCC (stereo not given) [MALATHION] | 171.5
CC[C@@]1([C@@H]2O[C@@H]([C@H]3O[C@@](O)(CO)[C@H](C)C[C@@H]3C)C[C@@H]2C)CC[C@H]([C@]2(C)CC[C@]3(C[C@H](O)[C@@H](C)[C@@H]([C@@H](C)[C@@H](OC)[C@H](C)C(=O)O)O3)O2)O1 [MONENSIN] | 245.1
